Results on eleven compounds are retold here after ChEMBL document CHEMBL4184178, “Identification of potent lysophosphatidic acid receptor 5 (LPA5) antagonists as potential analgesic agents” (Bioorg Med Chem, 2018).

As a reminder, the IC50 is the midpoint of a concentration-inhibition curve. As a reminder, the Kp is tissue or fluid exposure divided by exposure in the circulation.

The source made the active and inactive calls. No cut-off for these calls is given here. Bounds are passed on as bounds.

In data set [1] the target is Lysophosphatidic acid receptor 5 (Rattus norvegicus, UniProt D4ADR1). The experiment in a line: Antagonist activity at rat LPA5 receptor expressed in CHO cells assessed as inhibition of LPA-induced cAMP accumulation after 30 mins by Lance Ultra assay. The data set is classed as cell-based. In general terms: Changes in cAMP serve as a functional read-out for many G protein-coupled receptors.
Lysophosphatidic acid receptor 5, sequence (D4ADR1 whole entry): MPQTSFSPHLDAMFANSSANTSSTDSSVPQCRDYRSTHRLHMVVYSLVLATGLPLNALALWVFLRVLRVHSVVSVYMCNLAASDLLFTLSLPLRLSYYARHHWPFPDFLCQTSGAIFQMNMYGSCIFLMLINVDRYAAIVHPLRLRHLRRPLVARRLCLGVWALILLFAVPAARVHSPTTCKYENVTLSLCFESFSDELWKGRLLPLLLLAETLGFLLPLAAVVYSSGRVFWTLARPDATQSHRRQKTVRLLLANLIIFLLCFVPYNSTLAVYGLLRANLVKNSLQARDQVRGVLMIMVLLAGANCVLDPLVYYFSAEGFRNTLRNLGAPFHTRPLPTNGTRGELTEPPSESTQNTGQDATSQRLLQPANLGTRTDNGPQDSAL

A short description of data set [2]: Plasma concentration in rat at 60 mg/kg, ip measured after 0.5 hrs by LC-MS analysis. The data set is classed as ADME, organism-based.
Data set [3] in a line: Drug uptake in rat brain at 60 mg/kg, ip measured after 0.5 hrs by LC-MS analysis. The note with it: read-out: Drug uptake. The class given is ADME, organism-based.
Data set [4] is described as follows: Brain to plasma partition coefficient, Kp of the compound in rat at 60 mg/kg, ip measured after 0.5 hrs by LC-MS analysis. The class given is ADME, organism-based.
Data set [5] has as its system Rattus norvegicus. Put plainly: Analgesic effect in rat chronic constriction injury model assessed as reduction in mechanical allodynia at 60 mg/kg, ip by Von Frey test. The class given is functional, organism-based.
The test system of data set [6] is Rattus norvegicus. Put plainly: Analgesic effect in rat chronic constriction injury model assessed as reduction in mechanical allodynia at 10 mg/kg, ip by Von Frey test. The data set is classed as functional, organism-based.

Turning to `COc1cc2c(C(=O)N3CCCCCC3)cn(C(C)C)c(=O)c2cc1OC`, in data set [1], the IC50 is over 30000 nM. On to `CCN1CCc2ccc(-n3cc(C(=O)N4CCC(F)CC4)c4cc(OC)c(OC)cc4c3=O)cc21`, for which the half-inhibitory concentration (IC50) in data set [1] worked out at 120 nM. Moreover, the concentration at 0.5 h in data set [2] was 9.06 µM; in data set [3], 1220 nM. This compound came in with a concentration ratio (Kp) at 0.5 h in data set [4] of 0.13. In addition, the result with Rattus norvegicus [5] was Active. For the same compound, the outcome with Rattus norvegicus [6] was inactive. Turning to `CCOc1ccc(-n2cc(C(=O)N3CCCCCC3)c3cc(OC)c(OC)cc3c2=O)cc1`, the half-maximal inhibitory concentration (IC50) in data set [1] is 1800 nM. The same measure, in the same setting: in the case of `CCOc1ccc(-n2cc(C(=O)N3CCC(F)CC3)c3cc(OC)c(OC)cc3c2=O)cc1` it was 750 nM; in that of `COc1cc2c(C(=O)N3CCCCCC3)cn(-c3ccc(F)cc3)c(=O)c2cc1OC`, over 3000 nM; in that of `CCc1ccc(-n2cc(C(=O)N3CCCCCC3)c3cc(OC)c(OC)cc3c2=O)cc1`, 570 nM. For `CCN1CCc2ccc(-n3cc(C(=O)N4CCCCCC4)c4cc(OC)c(OC)cc4c3=O)cc21`, in data set [1], the IC50 was found to be 110 nM. Still for that read-out and setting: in the case of `COc1cc2c(C(=O)N3CCCCCC3)cn(-c3ccc(C)c(C)c3)c(=O)c2cc1OC` it was 720 nM; in that of `COc1cc2c(C(=O)N3CCCCCC3)cn(-c3ccc(C(N)=O)cc3)c(=O)c2cc1OC`, over 30000 nM; in that of `COc1cc2c(C(=O)N3CCCCCC3)cn(-c3cccc(N(C)C)c3)c(=O)c2cc1OC`, 130 nM.

`CCCCCCN(C)C(=O)c1cn(-c2ccc(OCC)cc2)c(=O)c2cc(OC)c(OC)cc12`: the IC50 in data set [1] is over 10000 nM.
